We go through two compounds from ChEMBL document CHEMBL3638859, “Aryl benzylamine compounds” (2014).

SMILES strings stand for the structures.

Broadly, the IC50 is the concentration at which inhibition is half-maximal.

This test concerns the target Sphingosine 1-phosphate receptor 1 (Homo sapiens, UniProt P21453). Put plainly: Receptor Calcium FLIPR Antagonist Assay: The assay measures intracellular changes of Ca2+ mediated by the synthetic probing agonist 3-{[2-(2-Trifluoromethyl-biphenyl-4-yl)-benzo[b]thiophen-5-ylmethyl]-amino}-propionic acid (GNF-AC-1) in the HeLa-S1P1/Galpha16 cell clone 1: HeLa (human cervix carcinoma, ATCC CCL2) cells stably expressing N-terminally myc-tagged human S1P1 receptors (GenBank accession No. NM001400; UNIPROT P21453) and promiscuous Galpha16 protein (GenBank accession number M63904, Swissprot P30679) are cultured at 37 C., 5% CO2, and 95% relative humidity. The cells are plated in 384 well black plates (10'000 cells per well). After 24 hours the cells are loaded with Fluo-4-AM (1.6 uM in HBSS and 2.5 mM probenicid) for 1 hour at 37 C. After washing, the cells are transferred to the FLIPR. The test compounds are added at different concentrations (<=100 uM) in HBSS in the presence of 0.1% BSA and changes in fluorescence are recorded (indication of agonism). It is filed as functional, cell-based.

Sphingosine 1-phosphate receptor 1, sequence (P21453 whole entry): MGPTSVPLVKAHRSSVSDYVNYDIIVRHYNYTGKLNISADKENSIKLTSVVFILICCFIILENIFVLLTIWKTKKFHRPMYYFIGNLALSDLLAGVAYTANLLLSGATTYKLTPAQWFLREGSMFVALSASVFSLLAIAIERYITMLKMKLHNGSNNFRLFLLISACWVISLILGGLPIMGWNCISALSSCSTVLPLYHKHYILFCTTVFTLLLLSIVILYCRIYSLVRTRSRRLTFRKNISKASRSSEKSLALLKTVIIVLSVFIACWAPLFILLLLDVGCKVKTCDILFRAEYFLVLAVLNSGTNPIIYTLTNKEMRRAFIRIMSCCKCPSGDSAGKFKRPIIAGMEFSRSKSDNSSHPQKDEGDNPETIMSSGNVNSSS

Consider `CC[C@@H](Nc1ccc(Cl)c(CNCCC(=O)O)c1)c1cc(C)c(Cl)c(C)c1`, for which the IC50 worked out at 2.4 nM. The value for `Cc1cc([C@H](Nc2ccc(F)c(CN3CC(C(=O)O)C3)c2)C(F)(F)F)ccc1Cl` was 0.1 nM.
